Patent US8796271B2, “Heteroaryls and uses thereof” (Millennium Pharmaceuticals, Inc., priority 2010, dated 2014)
Where two headings read alike, the source gives them in different places.

Columns and labels:
Format in all cases: biochemical
PI3Kalpha = target: T1, PI3Kalpha (Homo sapiens, UniProt P42336); test: Human PI3K alpha enzyme assay (HTRF)
T1 construct: His (N); host or cells: SF9 cells (baculovirus)
Description: (§1) The catalytic subunits of PI3Ks are cloned into either pDEST8 (p110 alpha) or pDEST10 (p110beta, p110delta, and p110gamma) as N-terminal His tagged fusion proteins using the Gateway system (Invitrogen, catalog #11804-010 for pDEST8 and 11806-015 for pDEST10). The sequences are verified before recombinant protein expression using the Baculovirus Expression System with Gateway® Technology. The accession numbers for the subunits are as follows:
(§2) For expression of the p110 complexes, the p85 (MOI of 4) is co-infected with p110 alpha, beta, and delta respectively (1MOI) in SF9 cells and harvested at 60 hours post co-infection. P110 gamma was infected at 1 MOI and harvested at 60 hours post infection.
(§3) For purification, PI3Ks are purified by Ni-NTA Agarose (Qiagen #30250) followed by Mono Q 10/100 GL (Ge Healthcare #17-5167-01). VPS34 is purified by Glutathione Sepharose 4 Fast Flow (GE Healthcare #17-5132-03) followed by HiTrap Q (GE Healthcare #17-1153-01).
1) Human PI3K Alpha Enzyme Assay Method
(§4) 0.5 uL compounds in DMSO are added to wells of a 384 well microtitre plate (Corning 3575). At room temperature: 10 ul PI3K reaction buffer (50 mM Hepes, 5 mM DTT, 150 mM NaCl, 10 mM beta-glycerophosphate, 10 mM MgCl2, 0.25 mM sodium cholate and 0.001% CHAPS, pH 7.00) containing ATP (25 uM, Promega) is added followed immediately by 10 ul PI3K reaction buffer containing di-C8 PI(4,5)P2 (3.5 uM, CellSignals) and PI3Kalpha (0.4875 nM, Millennium Protein Sciences Group) and the mixture is incubated with shaking at room temperature for 30 minutes. Then 5 ul PI3K stop mix (50 mM Hepes, 5 mM DTT, 150 mM NaCl, 0.01% Tween-20, 15 mM EDTA and 25 nM biotin-PI(3,4,5)P3 (Echelon) is added to quench the reaction followed immediately by addition of 5 ul HTRF detection mix (50 mM Hepes, 5 mM DTT, 150 mM NaCl, 0.01% Tween-20, 40 mM KF, 10 nM GST:GRP-1 PH domain (Millennium Protein Sciences Group), 15 nM Streptavidin-XL (CisBio) and 0.375 nM anti-GST Eu++ antibody (CisBio) at pH 7.00). The plates are then incubated for 1 hour at room temperature with shaking and then read on a BMG PheraStar Plus reader.
(§5) For the assay methods described above, test compound percent inhibition, at various concentrations, is calculated relative to control (DMSO and EDTA) treated samples. Compound concentration versus percent inhibition curves are fitted to generate IC50 values. One skilled in the art will appreciate that the values generated either as percentage inhibition at a single concentration or IC50 values are subject to experimental variation.

PI3K beta = target: T2, PI3K beta (Homo sapiens, UniProt P42338); test: Human PI3K beta enzyme assay (HTRF)
T2 construct: His (N); host or cells: SF9 cells (baculovirus)
T2 sequence (P42338 whole entry): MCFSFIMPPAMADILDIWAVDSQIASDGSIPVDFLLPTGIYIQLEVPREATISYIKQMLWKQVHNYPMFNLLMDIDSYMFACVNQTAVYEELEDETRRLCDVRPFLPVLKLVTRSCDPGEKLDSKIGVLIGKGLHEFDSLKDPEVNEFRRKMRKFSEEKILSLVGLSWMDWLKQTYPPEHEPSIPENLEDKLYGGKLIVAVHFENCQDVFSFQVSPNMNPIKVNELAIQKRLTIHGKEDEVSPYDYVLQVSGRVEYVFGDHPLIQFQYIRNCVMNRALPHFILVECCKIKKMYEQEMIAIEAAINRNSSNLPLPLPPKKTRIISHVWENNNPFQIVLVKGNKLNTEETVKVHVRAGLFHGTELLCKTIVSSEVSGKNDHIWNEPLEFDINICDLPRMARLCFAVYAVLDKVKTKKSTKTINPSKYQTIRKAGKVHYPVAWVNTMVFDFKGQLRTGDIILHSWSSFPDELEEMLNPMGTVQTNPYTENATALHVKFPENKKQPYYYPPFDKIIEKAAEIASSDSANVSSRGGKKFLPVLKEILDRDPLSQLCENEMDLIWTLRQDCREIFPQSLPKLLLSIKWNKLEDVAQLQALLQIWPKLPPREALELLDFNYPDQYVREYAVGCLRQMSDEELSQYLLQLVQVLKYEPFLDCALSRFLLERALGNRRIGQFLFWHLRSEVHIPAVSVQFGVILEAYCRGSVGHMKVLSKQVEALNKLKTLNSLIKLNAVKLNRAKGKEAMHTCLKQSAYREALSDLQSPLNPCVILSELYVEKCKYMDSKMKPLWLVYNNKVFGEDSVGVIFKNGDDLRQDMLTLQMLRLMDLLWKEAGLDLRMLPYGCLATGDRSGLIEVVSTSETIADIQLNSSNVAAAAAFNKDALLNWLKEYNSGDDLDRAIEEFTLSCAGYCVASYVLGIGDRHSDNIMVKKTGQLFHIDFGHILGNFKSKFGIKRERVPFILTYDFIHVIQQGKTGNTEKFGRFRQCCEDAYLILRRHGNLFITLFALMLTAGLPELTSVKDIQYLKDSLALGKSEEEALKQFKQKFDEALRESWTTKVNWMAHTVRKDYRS
T2 sequence (P27986 whole entry partner): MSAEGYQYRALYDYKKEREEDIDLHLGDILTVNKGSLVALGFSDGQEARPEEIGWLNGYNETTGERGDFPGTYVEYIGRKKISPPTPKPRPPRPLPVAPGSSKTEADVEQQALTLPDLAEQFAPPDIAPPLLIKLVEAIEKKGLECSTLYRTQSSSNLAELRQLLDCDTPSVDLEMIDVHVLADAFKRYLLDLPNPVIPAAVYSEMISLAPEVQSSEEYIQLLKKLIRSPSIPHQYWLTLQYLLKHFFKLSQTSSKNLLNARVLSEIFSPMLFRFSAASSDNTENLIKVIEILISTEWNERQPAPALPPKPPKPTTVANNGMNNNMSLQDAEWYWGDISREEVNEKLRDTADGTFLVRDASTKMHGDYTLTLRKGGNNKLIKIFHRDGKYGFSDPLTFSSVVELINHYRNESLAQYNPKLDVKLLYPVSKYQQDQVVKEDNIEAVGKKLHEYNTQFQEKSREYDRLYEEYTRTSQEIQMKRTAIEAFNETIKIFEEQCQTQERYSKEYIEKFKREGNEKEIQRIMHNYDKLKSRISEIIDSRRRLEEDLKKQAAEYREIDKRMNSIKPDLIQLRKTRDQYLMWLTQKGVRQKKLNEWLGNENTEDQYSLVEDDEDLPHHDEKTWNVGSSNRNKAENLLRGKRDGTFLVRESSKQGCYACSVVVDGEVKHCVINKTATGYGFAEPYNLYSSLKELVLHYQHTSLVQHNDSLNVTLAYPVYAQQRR
Description: as §1, §2, §3, §4
(§6) 2) Human PI3K beta, delta and gamma isoforms are tested using the procedure described for PI3K alpha above but with the following changes: PI3K beta (5.25 nM), PI3K delta (0.75 nM) and PI3K gamma (5 nM). All isoforms supplied by Millennium Protein Science Group.
as §5

PI3K delta = target: T3, PI3K delta (Homo sapiens, UniProt O00329); test: Human PI3K delta enzyme assay (HTRF)
T3 construct: His (N); host or cells: SF9 cells (baculovirus)
T3 sequence (O00329 whole entry): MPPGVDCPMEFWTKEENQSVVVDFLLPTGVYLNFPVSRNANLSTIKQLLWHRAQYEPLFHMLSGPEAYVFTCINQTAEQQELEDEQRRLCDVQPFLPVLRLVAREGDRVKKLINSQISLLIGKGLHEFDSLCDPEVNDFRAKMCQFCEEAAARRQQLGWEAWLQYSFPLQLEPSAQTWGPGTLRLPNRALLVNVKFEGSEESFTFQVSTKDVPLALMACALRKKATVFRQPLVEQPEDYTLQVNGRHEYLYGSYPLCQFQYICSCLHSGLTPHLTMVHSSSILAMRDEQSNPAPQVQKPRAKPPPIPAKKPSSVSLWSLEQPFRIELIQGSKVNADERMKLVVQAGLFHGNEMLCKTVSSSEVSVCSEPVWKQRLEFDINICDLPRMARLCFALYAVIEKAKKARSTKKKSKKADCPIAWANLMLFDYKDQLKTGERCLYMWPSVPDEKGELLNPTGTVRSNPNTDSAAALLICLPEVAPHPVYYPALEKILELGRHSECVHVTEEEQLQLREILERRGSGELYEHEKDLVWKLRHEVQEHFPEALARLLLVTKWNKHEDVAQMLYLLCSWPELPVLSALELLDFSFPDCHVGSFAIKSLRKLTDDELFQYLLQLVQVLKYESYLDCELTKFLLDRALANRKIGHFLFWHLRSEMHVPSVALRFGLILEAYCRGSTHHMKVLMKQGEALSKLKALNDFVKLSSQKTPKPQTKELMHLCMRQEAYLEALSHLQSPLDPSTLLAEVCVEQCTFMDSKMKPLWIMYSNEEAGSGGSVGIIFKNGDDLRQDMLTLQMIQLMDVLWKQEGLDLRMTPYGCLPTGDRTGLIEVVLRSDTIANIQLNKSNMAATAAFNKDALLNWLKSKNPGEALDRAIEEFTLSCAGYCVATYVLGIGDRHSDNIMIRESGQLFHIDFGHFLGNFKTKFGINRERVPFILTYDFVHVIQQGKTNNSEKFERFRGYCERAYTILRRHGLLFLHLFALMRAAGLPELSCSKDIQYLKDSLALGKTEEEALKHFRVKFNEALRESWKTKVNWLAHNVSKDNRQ
T3 sequence (P27986 whole entry partner): as the sequence (P27986 whole entry partner) above
Description: as §1, §2, §3, §4, §6, §5

PI3K gamma = target: T4, PI3K gamma (Homo sapiens, UniProt P48736); test: Human PI3K gamma enzyme assay (HTRF)
T4 construct: His (N); host or cells: SF9 cells (baculovirus)
T4 sequence (P48736 whole entry): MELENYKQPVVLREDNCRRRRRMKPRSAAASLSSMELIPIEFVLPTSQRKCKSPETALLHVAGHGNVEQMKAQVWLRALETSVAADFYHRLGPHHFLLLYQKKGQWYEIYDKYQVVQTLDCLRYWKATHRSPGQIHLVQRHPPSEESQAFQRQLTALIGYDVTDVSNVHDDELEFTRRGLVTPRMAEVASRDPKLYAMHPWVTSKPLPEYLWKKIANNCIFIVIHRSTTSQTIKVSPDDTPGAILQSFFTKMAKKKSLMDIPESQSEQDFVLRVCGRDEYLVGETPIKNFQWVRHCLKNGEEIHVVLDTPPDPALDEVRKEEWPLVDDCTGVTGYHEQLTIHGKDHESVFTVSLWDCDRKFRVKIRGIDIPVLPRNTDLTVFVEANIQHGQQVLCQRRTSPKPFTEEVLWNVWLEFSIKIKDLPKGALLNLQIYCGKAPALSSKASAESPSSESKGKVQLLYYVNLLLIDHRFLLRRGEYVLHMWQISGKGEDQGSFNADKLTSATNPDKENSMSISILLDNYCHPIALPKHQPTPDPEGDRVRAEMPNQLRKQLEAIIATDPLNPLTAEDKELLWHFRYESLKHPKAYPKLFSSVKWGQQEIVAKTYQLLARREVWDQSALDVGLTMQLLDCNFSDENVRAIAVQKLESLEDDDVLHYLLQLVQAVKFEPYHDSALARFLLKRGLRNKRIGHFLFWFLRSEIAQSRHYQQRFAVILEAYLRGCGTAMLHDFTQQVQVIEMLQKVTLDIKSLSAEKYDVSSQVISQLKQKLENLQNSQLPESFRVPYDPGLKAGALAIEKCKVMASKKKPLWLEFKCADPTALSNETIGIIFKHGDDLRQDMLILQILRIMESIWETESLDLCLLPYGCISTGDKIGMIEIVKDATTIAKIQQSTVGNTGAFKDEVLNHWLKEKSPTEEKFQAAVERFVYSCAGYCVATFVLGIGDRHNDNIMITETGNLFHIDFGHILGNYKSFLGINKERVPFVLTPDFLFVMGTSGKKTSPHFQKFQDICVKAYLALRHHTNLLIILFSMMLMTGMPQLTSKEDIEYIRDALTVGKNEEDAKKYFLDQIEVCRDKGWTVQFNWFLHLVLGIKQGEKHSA
Description: as §1, §2, §3, §4, §6, §5

VPS34 = target: T5, VPS34 (Homo sapiens, UniProt Q8NEB9); test: Human VPS34 enzyme assay (Adapta Universal Kinase Assay); details: 1 h; at a 1.0 μM concentration; read-out: VPS34 Percent Inhibition
T5 construct: GST (N); host or cells: SF9 cells (baculovirus)
Method: VPS34 (accession number GB:BC033004) is cloned into pDEST20-Thombin as N-terminal GST tagged fusion proteins using the Gateway system (Invitrogen, catalog #11804-013). The sequences are verified before recombinant protein expression using the Baculovirus Expression System with Gateway® Technology.
For expression VPS34 was infected at 1MOI in SF9 cells and harvested 72 hours post infection.
For purification, VPS34 is purified by Glutathione Sepharose 4 Fast Flow (GE Healthcare #17-5132-03) followed by HiTrap Q (GE Healthcare #17-1153-01).
3) VPS34 is assayed using Adapta™ Universal Kinase Assay Kit (Invitrogen).
4) Human VPS34 enzyme assay method
100 nL compounds in DMSO are added to wells of a 384 well microtitre plate (Greiner 780076). […] The plates are then incubated for 30 minutes at room temperature with shaking and then read on a BMG PheraStar Plus reader.
For the assay methods described above, test compound percent inhibition, at various concentrations, is calculated relative to control (DMSO and EDTA) treated samples. […]

[1] = at a 1.1 μM concentration, read-out: PI3Kα Percent Inhibition
[2] = at a 1.1 μM concentration, read-out: PI3Kβ Percent Inhibition
[3] = at a 1.0 μM concentration, read-out: PI3Kδ Percent Inhibition
[4] = at a 1.0 μM concentration, read-out: PI3Kγ Percent Inhibition
[5] = concentration not given, read-out: p110 alpha Percent Inhibition
[6] = concentration not given, read-out: p110 beta Percent Inhibition
[7] = concentration not given, b1433 gives 1.0 μM for PI3K δ and γ, read-out: p110 delta Percent Inhibition
[8] = concentration not given, b1433 gives 1.0 μM for PI3K δ and γ, read-out: p110 gamma Percent Inhibition

T1 sequence (P42336 whole entry): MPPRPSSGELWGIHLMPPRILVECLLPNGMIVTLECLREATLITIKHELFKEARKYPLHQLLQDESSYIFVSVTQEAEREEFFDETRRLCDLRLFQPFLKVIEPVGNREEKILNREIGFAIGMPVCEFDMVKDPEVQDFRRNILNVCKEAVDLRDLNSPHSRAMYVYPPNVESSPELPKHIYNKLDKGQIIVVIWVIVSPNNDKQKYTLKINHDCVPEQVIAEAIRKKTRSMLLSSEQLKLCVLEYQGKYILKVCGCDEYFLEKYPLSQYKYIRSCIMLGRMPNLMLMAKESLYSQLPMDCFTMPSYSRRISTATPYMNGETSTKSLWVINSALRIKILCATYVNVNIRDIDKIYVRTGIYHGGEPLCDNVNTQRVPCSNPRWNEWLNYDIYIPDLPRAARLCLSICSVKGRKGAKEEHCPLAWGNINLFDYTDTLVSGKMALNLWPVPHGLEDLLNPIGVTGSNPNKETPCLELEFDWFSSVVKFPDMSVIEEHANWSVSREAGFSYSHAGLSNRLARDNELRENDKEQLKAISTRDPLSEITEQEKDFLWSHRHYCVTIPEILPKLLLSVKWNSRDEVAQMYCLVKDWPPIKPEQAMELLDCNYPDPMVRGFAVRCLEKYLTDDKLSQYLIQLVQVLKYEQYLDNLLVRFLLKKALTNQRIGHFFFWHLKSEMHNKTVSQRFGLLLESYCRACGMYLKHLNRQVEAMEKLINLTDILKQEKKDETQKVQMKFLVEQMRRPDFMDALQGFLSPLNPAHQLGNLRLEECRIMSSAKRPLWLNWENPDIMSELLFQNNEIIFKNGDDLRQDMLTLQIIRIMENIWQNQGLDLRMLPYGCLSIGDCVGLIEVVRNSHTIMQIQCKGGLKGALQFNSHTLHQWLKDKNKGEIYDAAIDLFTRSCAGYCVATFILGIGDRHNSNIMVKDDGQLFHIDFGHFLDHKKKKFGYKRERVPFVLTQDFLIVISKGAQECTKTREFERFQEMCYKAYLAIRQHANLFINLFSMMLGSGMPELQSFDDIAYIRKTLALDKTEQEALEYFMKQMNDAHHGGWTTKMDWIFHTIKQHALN
T1 sequence (P27986 whole entry partner): as the sequence (P27986 whole entry partner) above

| Structure (SMILES) | inhibition at 1.1 µM (PI3Kalpha; [1]) [%] | inhibition at 1.1 µM (PI3K beta; [2]) [%] | inhibition at 1 µM (PI3K delta; [3]) [%] | inhibition at 1 µM (PI3K gamma; [4]) [%] | inhibition at 1 µM (VPS34) [%] | inhibition at 1.1 µM (PI3Kalpha; [5]) [%] | inhibition at 1.1 µM (PI3K beta; [6]) [%] | inhibition at 1 µM (PI3K delta; [7]) [%] | inhibition at 1 µM (PI3K gamma; [8]) [%] |
| --- | --- | --- | --- | --- | --- | --- | --- | --- | --- |
| N#Cc1c(N2CCOCC2)sc(C(=O)O)c1Cc1ccc(OC(F)(F)F)cc1 [Compound 102] | 30 | 78 | 38.1 | 6.8 | 28.2 |  |  |  |  |
| OC(c1cc(Br)cs1)c1cc(-c2ccncc2)sc1-c1nnc[nH]1 (stereo not shown) [Compound 233] |  |  |  |  |  | 61 | 97 | 74 | 28 |
| COc1cccc(C(O)c2cc(-c3ccncc3)sc2-c2nnc[nH]2)c1 (stereo not shown) [Compound 253] |  |  |  |  |  | 20 | 64 | 27 | 2 |
| NCc1c[nH]c(-c2sc(-c3ccncc3)nc2Cc2ccc(Cl)cc2)n1 [Compound 255, (2-(4-(4-chlorobenzyl)-2-(pyridin-4-yl)thiazol-5-yl)-1H-imidazol-4-yl)methanamine] |  |  |  |  |  | 0 | 55 | 39 | 5 |
| N#Cc1c(N2CCOCC2)sc(C(=O)O)c1Cc1ccc2c(c1)CCCC2 [Compound 305] |  |  |  |  |  | 37 | 106 |  | 37 |
| N#Cc1c(N2CCOCC2)sc(-c2nnn[nH]2)c1C(F)(F)c1ccc2ccccc2c1 [Compound 349] |  |  |  |  |  | 43 | 108 |  | 42 |
| c1ccc2cc(Cc3nc(N4CCOCC4)sc3-c3nnn[nH]3)ccc2c1 [Compound 360, 4-[4-(2-naphthylmethyl)-5-(1H-tetrazol-5-yl)-1,3-thiazol-2-yl]morpholine] |  |  |  |  |  | 30 | 106 | 110 | 49 |

The next lines start with the values.

| inhibition at 1.1 µM (PI3Kalpha; [1]) [%] | inhibition at 1.1 µM (PI3K beta; [2]) [%] | inhibition at 1 µM (PI3K delta; [3]) [%] | inhibition at 1 µM (PI3K gamma; [4]) [%] | inhibition at 1 µM (VPS34) [%] | inhibition at 1.1 µM (PI3Kalpha; [5]) [%] | inhibition at 1.1 µM (PI3K beta; [6]) [%] | inhibition at 1 µM (PI3K delta; [7]) [%] | inhibition at 1 µM (PI3K gamma; [8]) [%] | Structure (SMILES) |
| --- | --- | --- | --- | --- | --- | --- | --- | --- | --- |
| 49 | 103 | 87.3 | 20.2 | 45.8 |  |  |  |  | N#Cc1c(N2CCOCC2)sc(C(=O)O)c1Cc1cc(F)c(F)cc1F [Compound 107] |
|  |  |  |  |  | 84 | 109 |  | 69 | N#Cc1c(N2CCOCC2)sc(C(=O)O)c1Cc1ccc2ccc(F)cc2c1 [Compound 287] |
|  |  |  |  |  | 98 | 108 |  | 78 | N#Cc1c(N2CCOCC2)sc(C(=O)O)c1Cc1ccc2ccccc2c1F [Compound 293] |
|  |  |  |  |  | 101 | 111 |  | 76 | N#Cc1c(N2CCOCC2)sc(C(=O)O)c1Cc1cc2ccccc2cc1F [Compound 295] |
|  |  |  |  |  | 44 | 105 |  | 46 | N#Cc1c(N2CCOCC2)sc(C(=O)O)c1Cc1cc(F)c(Cl)cc1F [Compound 300] |
|  |  |  |  |  | 15 | 84 |  | 9 | N#Cc1c(N2CCOCC2)sc(C(N)=O)c1C(F)(F)c1ccc2ccccc2c1 [Compound 307] |
|  |  |  |  |  | 41 | 106 |  | 39 | N#Cc1c(N2CCOCC2)sc(C(=O)O)c1C(F)(F)c1ccc2ccccc2c1 [Compound 308] |
|  |  |  |  |  | 107 | 118 |  | 67 | N#Cc1c(N2CCOCC2)sc(C(=O)O)c1Cc1cc(F)c2ccccc2c1 [Compound 324] |
|  |  |  |  |  | 14 | 60 |  | 11 | COC(c1ccc2ccccc2c1)c1c(C(=O)O)sc(N2CCOCC2)c1C#N (stereo not shown) [Compound 337] |
|  |  |  |  |  | 84 | 110 |  | 67 | N#Cc1c(N2CCOCC2)sc(C(=O)O)c1Cc1ccc2c(F)cccc2c1 [Compound 343] |
|  |  |  |  |  |  | 105 |  | 62 | N#Cc1c(N2CCOCC2)sc(C(=O)O)c1C(F)c1ccc2ccccc2c1 (stereo not shown) [Compound 345] |
